In patent US11174254B2, “Aniline-substituted 1,2-dihydropyrrol[3,4-C]pyridin/pyrimidin-3-one derivative and use thereof” (SHANGHAI HAIYAN PHARMACEUTICAL TECHNOLOGY CO., LTD., priority 2017, dated 2021):

Assays:
BTK WT = BTK WT (Homo sapiens (Human), UniProt Q06187); assay: Lantha Screening Kinase Reaction Assay; type: biochemical; settings: for IC50: TR-FRET LanthaScreen, kinase Invitrogen PV3363, 60 min at 25° C.; for inhibitory activity against enzyme (BTK WT), in words: comment on table 1, G-12 and G-17 compared with G-2
Experimental: The compound was predissolved in 100% DMSO.10 mM drug stock solution was obtained by dissolution at room temperature and then gradiently diluted with 8 vol % DMSO solution to a final concentration of 10-0.005 μM. 2.5 μl of a solution of substance to be tested and 2.5 μl of kinase (Invitrogen PV3363) diluted with the reaction buffer were added into each well of 384-well plate (Corning 3676), and then the mixture of Fluososcei-PolyGT (Invitrogen PV3610) substrate and ATP (Invitrogen PV3227) diluted with 5 μl of the reaction buffer were added to initiate the reaction. Among the wells, the kinase in the blank well was replaced with a reaction buffer and the kinase well (Enzyme) was not added with any drug. […] The plates were read on a VictorX5 fluorescent plate reader (PerkinElmer) and the light absorption at an excitation wavelength of 340 nm and emission wavelengths of 500 nm and 520 nm was measured.
2. The half-inhibitory concentration IC50 was calculated by fitting with XLFIT 5.0 software (IDBS, UK).

wild-type EGFR kinase = wild-type EGFR kinase (Homo sapiens (Human), UniProt P00533); assay: Wild type EGFR kinase inhibition test (z-lyte); type: biochemical; settings: wild-type EGFR kinase Invitrogen PV3872, Tyr04 substrate, read-out: EGFR WT IC50
Text: All the following reagents used in z-lyte test are commercially available from Invitrogen.
The calculation method for the inhibition ratio (referring to the instruction of PV3363, Invitrogen) was as follows: ER=Coumarin Emission (450 nm)/Fluorescein Emission (520 nm) 1. Phosphorylation ratio=(1−((ER×C3520 nm−C3450 nm)/((C1450 nm−C3450 nm)+ER×(C3520 nm−C1520 nm))))×100% 2. Inhibition ratio (IR)=(1-phosphorylation ratio of the test compound)/(phosphorylation ratio of C2))×100% 3.
The half-inhibitory concentration IC50 was calculated by fitting with XLFIT 5.0 software (IDBS, UK).

βBTK Y223 (Ramos cells) = βBTK Y223 (Ramos cells) (Homo sapiens (Human), UniProt Q06187); assay: HTRF method for detecting intracellular βBTK Y223 phosphorylation; type: cell-based; settings: 1 hour compound incubation, sodium pervanadate stimulation
Experimental: The compound was predissolved in 100% DMSO. 10 mM drug stock solution was obtained by dissolution at room temperature and then gradiently diluted with 5 vol % DMSO solution to a final concentration of 3-0.0014 μM. Ramos cells were seeded into a 96-well plate at a density of 4×10^5/well with 45 μl of 1640 medium containing 10% (V/V) FBS per well, and 5 μl of diluted solution of substance to be tested was added to each well. Incubation was performed for 1 hour at 37° C., 5% (V/V) CO2. 10 μl of sodium pervanadate dilution (diluted with 1640 without serum) was added, and 10 μl of serum-free medium was added to the negative control wells. Incubation was performed at 25° C. for 30 minutes on a shaker. 20 μl of lysate (4× lysate: blocked mother liquor is equal to 25:1) was added to each well and incubated for 30 minutes at 25° C. on a shaker. The 96-well plate was shaken on an oscillator at 800 rpm for 1 minute. 16 μl of cell lysate was added to a 384-well plate (Greiner 784075), and 4 μl of pre-mixed antibody solution (Phospho-BTK d2 antibody and Phospho-BTK Cryptate antibody diluted 20-fold with the test solution) was added. Incubation was performed at 25° C. overnight on a shaker. The plate was read on a VictorX5 fluorescent plate reader (PerkinElmer) and the light absorption at an excitation wavelength of 317 nm and emission wavelengths of 500 nm and 520 nm was measured (referring to the instruction of 63ADK017PEH, Cisbio). The half-inhibitory concentration IC50 was calculated by fitting with XLFIT 5.0 software (IDBS, UK).

wild-type EGFR kinase, sequence (P00533 25-1210): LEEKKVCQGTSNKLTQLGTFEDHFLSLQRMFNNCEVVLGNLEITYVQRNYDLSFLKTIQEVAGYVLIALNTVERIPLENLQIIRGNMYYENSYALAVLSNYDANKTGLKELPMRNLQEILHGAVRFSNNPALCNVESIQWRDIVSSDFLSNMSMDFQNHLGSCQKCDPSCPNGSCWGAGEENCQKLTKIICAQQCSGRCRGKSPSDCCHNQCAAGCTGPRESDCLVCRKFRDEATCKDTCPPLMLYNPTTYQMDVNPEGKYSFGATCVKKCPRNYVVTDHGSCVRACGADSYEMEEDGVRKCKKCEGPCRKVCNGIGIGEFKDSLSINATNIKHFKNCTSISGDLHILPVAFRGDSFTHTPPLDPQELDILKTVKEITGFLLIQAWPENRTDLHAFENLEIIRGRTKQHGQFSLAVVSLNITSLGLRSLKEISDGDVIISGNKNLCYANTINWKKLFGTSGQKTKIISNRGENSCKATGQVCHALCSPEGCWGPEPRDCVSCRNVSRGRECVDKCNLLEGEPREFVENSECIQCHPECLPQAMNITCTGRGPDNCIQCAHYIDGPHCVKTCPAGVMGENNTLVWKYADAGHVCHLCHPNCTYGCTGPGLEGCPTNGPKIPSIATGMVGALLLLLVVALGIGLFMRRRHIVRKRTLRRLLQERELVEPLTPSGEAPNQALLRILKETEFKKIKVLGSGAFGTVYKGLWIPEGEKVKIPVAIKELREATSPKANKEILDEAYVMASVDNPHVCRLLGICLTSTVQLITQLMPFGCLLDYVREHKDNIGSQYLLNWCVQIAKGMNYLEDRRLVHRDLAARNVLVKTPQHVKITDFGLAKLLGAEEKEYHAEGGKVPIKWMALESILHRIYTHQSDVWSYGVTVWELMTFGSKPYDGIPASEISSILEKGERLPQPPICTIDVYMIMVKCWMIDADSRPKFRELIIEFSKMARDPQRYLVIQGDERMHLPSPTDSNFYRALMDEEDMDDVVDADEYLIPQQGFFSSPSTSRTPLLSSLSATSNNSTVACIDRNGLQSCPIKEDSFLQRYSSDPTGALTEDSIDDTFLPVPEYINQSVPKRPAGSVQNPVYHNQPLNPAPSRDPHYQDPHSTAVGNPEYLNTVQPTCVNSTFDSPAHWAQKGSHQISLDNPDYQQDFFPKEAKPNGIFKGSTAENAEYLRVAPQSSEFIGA
βBTK Y223 (Ramos cells), sequence (Q06187 whole entry): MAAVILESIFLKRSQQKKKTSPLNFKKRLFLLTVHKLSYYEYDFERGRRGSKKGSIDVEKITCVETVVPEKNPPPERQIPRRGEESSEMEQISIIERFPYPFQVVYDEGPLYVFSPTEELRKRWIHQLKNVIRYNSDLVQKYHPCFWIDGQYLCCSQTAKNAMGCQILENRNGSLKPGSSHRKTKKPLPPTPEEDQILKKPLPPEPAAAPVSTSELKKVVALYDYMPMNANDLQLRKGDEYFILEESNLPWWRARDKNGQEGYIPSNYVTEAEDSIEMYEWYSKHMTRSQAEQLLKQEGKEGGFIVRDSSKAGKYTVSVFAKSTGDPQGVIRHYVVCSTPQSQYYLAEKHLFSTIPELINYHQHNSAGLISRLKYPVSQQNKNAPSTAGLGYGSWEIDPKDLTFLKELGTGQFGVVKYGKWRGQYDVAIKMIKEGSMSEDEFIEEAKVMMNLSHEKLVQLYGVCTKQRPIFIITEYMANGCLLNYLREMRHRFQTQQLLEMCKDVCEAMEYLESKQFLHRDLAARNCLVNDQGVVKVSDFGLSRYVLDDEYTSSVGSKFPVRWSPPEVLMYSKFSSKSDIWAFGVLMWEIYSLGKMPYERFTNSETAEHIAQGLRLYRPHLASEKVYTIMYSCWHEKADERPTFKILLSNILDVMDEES
BTK WT, sequence (Q06187 whole entry): as above

| SMILES | IC50 (BTK WT) [nM] | IC50 (wild-type EGFR kinase) [nM] | IC50 (βBTK Y223 (Ramos cells)) [nM] | inhibitory activity against enzyme (BTK WT), in words (BTK WT) |
| --- | --- | --- | --- | --- |
| C=CC(=O)Nc1cccc(Nc2nc(Nc3ccc(OCCOC)cc3)c3c(c2F)C(C)NC3=O)c1 (stereo not drawn) [Compound G-1, N-(3-((7-fluoro-4-((4-(2-methoxyethoxy)phenyl)amino)-1-methyl-3-oxo-2,3-dihydro-1H-pyrrolo[3,4-C]pyridin-6-yl)amino)phenyl)acrylamide] | 141 | 9270 | – | – |
| C=CC(=O)Nc1cccc(Nc2nc3c(c(Nc4ccc(OCCOC)cc4)n2)C(=O)NC3)c1 [Compound G-2, N-(3-(4-(4-(2-methoxyethoxy)phenylamino)-5-oxo-6.7-dihydro-5H-pyrrolo[3,4-d]pyrimidin-2-ylamino)phenyl)acrylamide] | 25 | 4690 | 43 | – |
| C=CC(=O)Nc1cccc(Nc2nc(Nc3ccc(OCCOC)cc3)c3c(c2F)CNC3=O)c1 [Compound G-3, N-(3-(7-fluoro-4-(4-(2-methoxyethoxy)phenylamino)-3-oxo-2,3-dihydro-1H-pyrrolo[3,4-c]pyridin-6-ylamino)phenyl)acrylamide] | 58 | > 10000 | 106 | – |
| C=CC(=O)Nc1cccc(Nc2nc(Nc3ccc(N4CCN(CC(C)O)CC4)cc3)c3c(c2F)CNC3=O)c1 (stereo not drawn) [Compound G-4, N-(3-(7-fluoro-4-(4-(4-(2-hydroxypropyl)piperazin-1-yl)phenylamino)-3-oxo-2,3-dihydro-1H-pyrrolo[3,4c]pyridin-6-ylamino)phenyl)acrylamide] | 10 | 3000 | 6 | – |
| C=CC(=O)Nc1cccc(Nc2nc(Nc3ccc(OCCOC)cc3)c3c(c2F)C(C)(C)NC3=O)c1 [Compound G-5, N-(3-(7-fluoro-4-(4-(2-methoxyethoxy)phenylamino)-1,1-dimethyl-3-oxo-2,3-dihydro-1H-pyrrolo[3,4-c]pyridin-6-ylamino)phenyl)acrylamide] | 156 | – | – | – |
| C=CC(=O)Nc1cccc(Nc2nc3c(c(Nc4ccccc4)n2)C(=O)NC3)c1 [Compound G-6, N-(3-(5-oxo-4-(phenylamino)-6,7-dihydro-5H-pyrrolo[3,4-d]pyrimidin-2-ylamino)phenyl)acrylamide] | 14 | 3000 | 20 | – |
| C=CC(=O)Nc1cccc(Nc2nc3c(c(Nc4cnn(C5CCOCC5)c4)n2)C(=O)NC3)c1 [Compound G-7, N-(3-(5-oxo-4-(1-(tetrahydro-2H-pyran-4-yl)-1H-pyrazol-4-ylamino)-6,7-dihydro-5H-pyrrolo[3,4d]pyrimidin-2-ylamino)phenyl)acrylamide] | 19 | 6990 | 111 | – |
| C=CC(=O)Nc1cccc(Nc2nc3c(c(Nc4cnn(C)c4)n2)C(=O)NC3)c1 [Compound G-8, N-(3-(4-(1-methyl-1H-pyrazol-4-ylamino)-5-oxo-6,7-dihydro-5H-pyrrolo[3,4-d]pyrimidin-2-ylamino)phenyl)acrylamide] | 9 | 6420 | 36 | – |
| C=CC(=O)Nc1cccc(Nc2nc3c(c(Nc4cnn(CC(C)(C)O)c4)n2)C(=O)NC3)c1 [Compound G-9, N-(3-(4-(1-(2-hydroxyl-2-methylpropyl)-1H-pyrazol-4-ylamino)-5-oxo-6,7-dihydro-5H-pyrrolo[3,4-d]pyrimidin-2-ylamino)phenyl)acrylamide] | 55 | 5030 | 82 | – |
| C=CC(=O)Nc1cccc(Nc2cc3c(c(Nc4ccc(OCCOC)cc4)n2)C(=O)NC3)c1 [Compound G-10, N-(3-(4-(4-(2-methoxyethoxy)phenylamino)-3-oxo-2,3-dihydro-1H-pyrrolo[3,4-c]pyridin-6-ylamino)phenyl)acrylamide] | 68 | > 10000 | 164 | – |
| C=CC(=O)Nc1cccc(Nc2nc3c(c(-c4cnn(C)c4)n2)C(=O)NC3)c1 [Compound G-11, N-(3-(4-(1-methyl-1H-pyrazol-4-yl)-5-oxo-6,7-dihydro-5H-pyrrolo[3,4-d]pyrimidin-2-ylamino)phenyl)acrylamide] | 48 | > 10000 | 4 | – |
| C=CC(=O)Nc1cccc(Nc2nc3c(c(Oc4ccc(OCCOC)cc4)n2)C(=O)NC3)c1 [Compound G-12, N-(3-((4-(4-(2-methoxyethoxy)phenoxyl)-5-oxo-6,7-dihydro-5H-pyrrolo[3,4-d]pyrimidin-2-yl)amino)phenyl)acrylamide] | 1350 | 1530 | – | significantly reduced |
| C=CC(=O)Nc1cccc(Nc2nc3c(c(Nc4cnn(C5CC5)c4)n2)C(=O)NC3)c1 [Compound G-13] | 63 | 3080 | 81 | – |
| C=CC(=O)Nc1cccc(Nc2nc3c(c(Nc4cnn(CCOC)c4)n2)C(=O)NC3)c1 [Compound G-14] | 59 | 2690 | 103 | – |
| C=CC(=O)Nc1cccc(Nc2nc3c(c(Nc4ccc(N5CCOCC5)cc4)n2)C(=O)NC3)c1 [Compound G-15] | 52 | 4260 | 36 | – |
| C=CC(=O)N(CC)c1cccc(Nc2nc3c(c(Nc4ccc(N5CCN(C6COC6)C[C@@H]5C)cc4)n2)C(=O)NC3)c1 [Compound G-16] | 44 | 5680 | 62 | – |
| C=CC(=O)Nc1cccc(Nc2nc3c(c(N(C)c4ccc(OCCOC)cc4)n2)C(=O)NC3)c1 [Compound G-17] | > 10000 | > 10000 | – | significantly lowered |
